Results reported in patent publication US8686113B2 (priority 2009, dated 2014).
Values after ≈ are worked out from the molar mass of the structure shown. Read-outs that look alike come from different tables or passages of the source. Values belong to the compound of their own block, whether it stands above or below them. Non-standard residues stand in square brackets, D forms with d. Residues, ends and D or L forms follow the SMILES beside them. No end group written: not given here. Hyp = O=C(O)[C@@H]1C[C@@H](O)CN1; Tle = CC(C)(C)[C@H](N)C(=O)O; Orn = NCCC[C@H](N)C(=O)O

What was measured:
[1] = mouse, serum
Experimental: (§3) For this, the peptides and peptidomimetics were dissolved in water, mouse serum was added and the peptide concentration was adjusted to 75 μg/mL. While shaking continuously, the mixture was incubated at 37° C. After 0, 30, 60, 120, 240 and 360 minutes, in each case an aliquot was taken and mixed with 15% aqueous trichloroacetic acid (Carl Roth GmbH & Co. KG; Karlsruhe, Germany). After incubation on ice for a further 10 minutes, the precipitated serum proteins were centrifuged off (5 min, 13400 rpm, MiniSpin, Eppendorf AG, Hamburg, Germany). The supernatant was removed, neutralized with 1 mol/L aqueous sodium hydroxide solution (Fluke Chemie GmbH, Buchs, Switzerland) and stored at −20° C. until analysis.
(§4) The supernatants were analyzed by RP-HPLC with a linear acetonitrile gradient (Biosolve BV, Valkenswaard, The Netherlands) in the presence of 0.1% trifluoroacetic acid (TFA, UV-grade, Fluka Chemie GmbH, Buchs, Switzerland) as ion-pairing reagent. The fractions were co-crystallized with α-cyanohydroxycinnamic acid (Bruker Daltonik GmbH; Bremen, Germany) as matrix (5.3 mg/mL in 50% acetonitrile in 0.1% aqueous TFA) and were analyzed with a tandem mass spectrometer (MALDI-TOF/TOF-MS, 4700 Proteomics Analyzer; Applied Biosystems GmbH, Weiterstadt, Germany) in the positive-ion reflector mode. The proportion of intact peptides and their degradation products or metabolites could thus be identified and quantified at the individual time points. The control used was 25% aqueous mouse serum, which was analyzed in parallel for the same time intervals.

[2] = in vitro; details: mouse, 100% mouse serum
Experimental: as §3, §4

[3] = test system: E. coli BL21 A1; assay type: cell-based, Escherichia coli
Method in brief: (§1)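 Broth microdilution in 1% TSB with twofold peptide series, final 128 μg/mL to 62.5 ng/mL, against 5×10^6 bacteria/mL stock suspension added 1:1. Incubated 20 h at 37 °C, growth read by absorbance at 595 nm; MIC is the lowest concentration with no growth, determined in triplicate.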

[4] = 25% aqueous mouse serum, 37° C., 75 μg/mL peptide
[5] = test system: Pseudomonas aeruginosa DSM 3227
[6] = test system: Klebsiella pneumoniae DSM 681
[7] = test system: Escherichia coli DSM 10233
[8] = test system: bacterial proteases (E. coli BL21 A1 lysate); assay: Stability against bacterial proteases in E. coli lysate; assay type: in vitro ADME; details: 37° C.
Method in brief: (§2)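 Peptide (0.15 μg/mL) incubated at 37° C. in E. coli BL21 A1 sonicated lysate in PBS pH 7.4, Bradford-adjusted to 1.5 or 0.5 mg/mL protein. Samples at 0–360 min TCA-precipitated and neutralized. Intact peptide and fragments quantified by HPLC, identified by MALDI-TOF-MS.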

[9] = as above; assay type: in vitro ADME; details: E. coli BL21 A1 lysate (bacterial proteases), pH 7.4; E. coli lysate with 0.5 mg/mL protein concentration; read-out: percentage printed under half-life >240 min (peptide remaining)
Method in brief: as §2

[10] = test system: M. luteus 10240; assay: Growth inhibition assay (microdilution MIC); assay type: cell-based, Micrococcus luteus
Method in brief: as §1

[11] = test system: M. luteus 10240; assay type: cell-based, Micrococcus luteus; details: alanine scan
Experimental: The purified peptides and peptide derivatives were diluted in water to a final concentration of 500 μg/mL. The test microbes were plated out from a culture in the logarithmic growth phase at a concentration of approx. 3×10^5 cells/mL in 1% tryptic soy broth and 1.2% agarose (Fluka Chemie GmbH, Buchs, Switzerland). With spacing of 3 cm, in each case 10 μL of aqueous peptide solution (500 μg/mL) or 10 μL of water and antibiotic solution as controls were added dropwise. After incubation for 20 h at 37° C., the inhibition zone diameter (IZD) was determined. All tests were performed in aerobic conditions.

[12] = test system: P. vulgaris ATCC 6896; details: ATCC 6896
[13] = test system: K. pneumoniae 012-3131
[14] = test system: S. typhimurium ATCC 700408
[15] = test system: P. aeruginosa 39324
[16] = test system: S. saprophyticus 15305; details: 15305
[17] = test system: P. mirabilis ATCC 7002; details: ATCC 7002
[18] = test system: E. coli D31 J. Wilson; details: ¼ Muller-Hinton medium
[19] = in vitro; details: mouse, 25% aqueous mouse serum, Half-life in 25% mouse serum, 37° C., 75 μg/mL peptide
[20] = 25% aqueous mouse serum; details: 37° C., up to 360 minutes
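Wherever Half-life in 25% mouse serum is given: intact peptide left at successive time points measured by reversed-phase HPLC with an acetonitrile gradient in the supernatant after precipitation of serum proteins.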

Compound: CC[C@H](C)[C@H](NC(=O)[C@@H]1C[C@@H](O)CN1C(=O)[C@H](CCCNC(=N)N)NC(=O)[C@@H]1CCCN1C(=O)[C@@H]1CCCN1C(=O)[C@H](CCCNC(=N)N)NC(=O)[C@@H]1CCCN1C(=O)[C@H](CCCNC(=N)N)NC(=O)[C@@H]1CCCN1C(=O)[C@H](CC(C)C)NC(=O)[C@H](Cc1ccc(O)cc1)NC(=O)[C@@H]1CCCN1C(=O)[C@@H]1CCCN1C(=O)[C@H](CCCCN)NC(=O)[C@H](CC(=O)O)NC(=O)[C@@H](N)C(C)C)C(=O)N[C@@H](Cc1ccc(O)cc1)C(=O)N[C@@H](CC(N)=O)C(=O)N[C@@H](CCCN)C(N)=O [compound 63] (H-VDKPPYLPRPRPPR[Hyp]IYN[Orn]-NH2)
- half-life [1]: > 8 h
- remaining at 8 h, 75 μg/mL [2]: 60%
- MIC E. coli BL21 A1 ([3]; BL21, 20 h): 4 µg/mL (≈ 1.74 µM)
- Half-life in 25% mouse serum [4]: >6 h
- MIC P. aeruginosa DSM 3227 [5]: 16 to 32 µg/mL
- MIC K. pneumoniae DSM 681 [6]: 2 µg/mL (≈ 0.868 µM)
- MIC E. coli DSM 10233 [7]: 1 µg/mL (≈ 0.434 µM)

Compound: CC(C)C[C@H](NC(=O)[C@H](Cc1ccc(O)cc1)NC(=O)[C@@H]1CCCN1C(=O)[C@@H]1CCCN1C(=O)[C@H](CCCCN)NC(=O)[C@H](CC(=O)O)NC(=O)[C@@H](N)C(C)C)C(=O)N1CCC[C@H]1C(=O)N[C@@H](CCCNC(=N)N)C(=O)N1CCC[C@H]1C(=O)N[C@@H](CCCNC(=N)N)C(=O)N1CCC[C@H]1C(=O)N1C[C@H](O)C[C@H]1C(=O)N[C@@H](CCCNC(=N)N)C(=O)N1C[C@H](O)C[C@H]1C(=O)N[C@H](C(=O)N[C@@H](Cc1ccc(O)cc1)C(=O)N[C@@H](CC(N)=O)C(=O)N[C@@H](CCCN)C(N)=O)C(C)(C)C [compound 110] (H-VDKPPYLPRPRP[Hyp]R[Hyp][Tle]YN[Orn]-NH2)
- Half-life in E. coli lysate ([8]; E. coli lysate with 0.5 mg/mL protein concentration): >4 h
- remaining at 4 h, 0.15 μg/mL [9]: 90%
- half-life [1]: > 8 h
- remaining at 8 h, 75 μg/mL [2]: 70%
- MIC M. luteus 10240 ([10]; 10240, 20 h): 16 µg/mL (≈ 6.89 µM)

Compound: H-VDKPPYLPRPRPPRRAYNR-NH2 [SEQ ID NO. 44]
- increase in inhibition zone relative to oncocin, M. luteus [11]: 0.7 cm

Compound: H-VDKPPYLPRPRPPRRIYAR-NH2 [SEQ ID NO. 46]
- increase in inhibition zone relative to oncocin, M. luteus [11]: 0.7 cm

Compound: VDKPPYLPRPRPPRRIYNR-NH2 [SEQ ID NO. 18]
- MIC P. vulgaris ATCC 6896 [12]: 128 µg/mL
- MIC K. pneumoniae 012-3131 [13]: 4 µg/mL
- MIC S. typhimurium ATCC 700408 [14]: 0.25 µg/mL
- MIC P. aeruginosa 39324 [15]: 4 µg/mL
- MIC S. saprophyticus 15305 [16]: 16 µg/mL
- MIC P. mirabilis ATCC 7002 [17]: 128 µg/mL
- MIC E. coli D31 J. Wilson [18]: 2 µg/mL
- half-life at 0.15 μg/mL ([8]; E. coli, E. coli BL21 A1 lysate, pH 7.4, E. coli lysate with 0.5 mg/mL protein concentration): 1 h
- MIC E. coli BL21 A1 ([3]; 1% TSB, 20 h at 37° C.): 4 µg/mL
- MIC M. luteus 10240 ([10]; 1% TSB, 20 h at 37° C.): 8 µg/mL
- half-life at 75 μg/mL [19]: 1 h

- cleaved bond [20]: Asn18-arginine19, first_seen
Compound: VDKPPYLPRPRPPRRIYNR-OH
